Source: patent publication US11167037B2, “Antibody drug conjugate platform using bispecific antibody” (SEOUL NATIONAL UNIVERSITY R&DB FOUNDATION, priority 2016, dated 2021)
Residues, ends and D or L forms follow the SMILES beside them. Groups on a side chain read outwards from the residue. *: point of attachment. Biotin = O=C1N[C@H]2[C@H](CS[C@H]2CCCCC(=O)*)N1; X1 = CN1C(=O)C[C@H](C(=O)*)[C@H]1c1cccnc1; PEG6 = NCCOCCOCCOCCOCCOCCOCCC(=O)O

Key:
[1] = mouse, in vivo
Experimental: Blood samples were collected from intra-orbital vein at 0, 1, 24, 48, 72, 96 and 168 hrs post-injection. The samples were left at the room temperature for 2 hrs until the blood coagulated. Subsequently, serum was acquired by centrifuging at 3500 rpm for 15 min at 4° C.
After washing with 0.05% PBST, HRP-conjugated streptavidin (Thermo Fisher Scientific Pierce) was added and cultured for 1 hr at 37° C. After washing, TMB was added to each well and the absorbance was measured at 650 nm.

[2] = tested on: EGFR on the A549 cell surface; assay: Flow cytometry on A549 cells; assay type: cell-based, human
Experimental: A549 cells were seeded in a v-bottom 96-well plate (Corning) in the final concentration of 4×10^5 cells per each sample. […] After washing with the flow cytometry buffer, the cells were cultured with phycoerythrin (PE)-conjugated streptavidin (BD Biosciences Pharminogen, San Diego, Calif., USA) and FITC-conjugated anti-human IgG (Fc specific) antibody (Thermo Fisher Scientific Pierce) in the dark for 1 hr at 37° C. After additional washing with the same buffer, the cells were resuspended in 200 μL PBS, and analyzed through flow cytometry using FACS Canto II instrument equipped with a 488-nm laser (BD Bioscience, San Jose, Calif., USA). 10,000 cells per measurement were detected and data were analyzed with FlowJo software (TreeStar, Ashland, Oreg., USA).

[3] = tested on: A549 cells; assay: Cell viability assay (Cell Titer-Glo, 72 hrs); assay type: cell-based, human; conditions: ATP content
Experimental: A549 cells were seeded in 50 μL RPMI-1640 medium in black-walled 96-well plates (4,000 cells per well) and allowed to adhere overnight at 37° C. in 5% CO2 and humidified atmosphere. […] The cotinine-duocarmycin and antibody dilutes in 50 μL medium were added to each well, and cultured for 72 hrs. After adding Cell Titer-Glo reagent (Promega Corp.) to each well, luminescence signals were measured using a microplate luminometer (PerkinElmer, Waltham, Mass., USA) according to the manufacturer's instructions. All experiments were conducted in triplicate. The relative cell viability was calculated by dividing by the control luminescence signal [% viability=(Test−Background)/(Control−Background)×100].

[4] = tested on: A549 xenograft tumor; assay: A549 xenograft tumor growth; assay type: in vivo, Balb/c-nude mice; conditions: intraperitoneally for five weeks, n=4/group
Experimental: Six-week-old female Balb/c-nude mice were subcutaneously injected with the A549 (1×10^7 cells) on the left and right flank of each mouse. When the tumor volume reached approximate 150 mm^3, all animals were randomly divided into three groups (n=4/group) and treated for five weeks. […] Then, three times dose of the drugs were injected thrice a week for the following three weeks. Palivizumab was used as an isotype control of the bispecific antibody. DMSO was used as a vehicle control of cotinine-duocarmycin. The tumor volume was measured using digital calipers twice a week in 32 days after injection. Tumor volume was calculated as length×(width)^2×0.5, where the length is the longest axis and the width is the distance perpendicular to the length. Systemic toxicity was evaluated by measuring body weight twice a week. Mice were sacrificed on the day 35 after injection and tumors were dissected and weighted.
To evaluate the in vivo efficacy of ERC6-complexed cotinine-duocarmycin, cetuximab-refractory A549 cells were grafted to mice (n=4/group). […] Drugs were administered to the mice twice a week for two weeks, and then thrice a week for three weeks.

## CN1C(=O)C[C@H](C(=O)NCCCC[C@H](NC(=O)[C@H](CO)NC(=O)CNC(=O)CNC(=O)CNC(=O)CNC(=O)[C@H](CCCCNC(=O)CCOCCOCCOCCOCCOCCOCCNC(=O)CCCC[C@@H]2SC[C@@H]3NC(=O)N[C@@H]32)NC(=O)[C@H](CO)NC(=O)CNC(=O)CNC(=O)CNC(=O)CNC(=O)[C@H]2CC(=O)N(C)[C@@H]2c2cccnc2)C(=O)O)[C@H]1c1cccnc1 [cotinine-biotin, cotinine-GGGGSK[(dPEG6)-biotin]GGGGSK-cotinine] (X1-GGGGSK([PEG6-Biotin])GGGGSK(X1)-OH)
[1]
  half-life: 33.4 min
[2]; ERC6 present
  binding activity of cotinine-biotin to A549 cell (streptavidin-PE signal): showed the binding activity to the A549 cell
[2]; mixture with anti-cotinine IgG
  binding activity of cotinine-biotin to A549 cell (streptavidin-PE signal): did not produce any significant signal
[2]; mixture with cetuximab
  binding activity of cotinine-biotin to A549 cell (streptavidin-PE signal): did not produce any significant signal

## COC(=O)c1cc2c([nH]1)C(=O)C=C1N(C(=O)c3cc4cc(OC)c(OC)c(OC)c4[nH]3)C[C@H]3C[C@]123 [free duocarmycin, duocarmycin, reference compound]
[3]
  cytotoxic / anti-proliferative effect (relative cell viability): stronger anti-tumor effect than the cotinine-duocarmycin

## cotinine-[GSK(duocarmycin)]4K-cotinine [cotinine-duocarmycin]
[3]
  cytotoxic / anti-proliferative effect (relative cell viability): potent anti-proliferative effect
[4]
  inhibition of tumor growth: could not be selectively delivered to the tumor site and inhibit the tumor growth
